From ChEMBL document CHEMBL1134832, “Conformational analysis of tandospirone in aqueous solution: lead evolution of potent dopamine D4 receptor ligands” (Bioorg Med Chem Lett, 2001)

Legend:
[1] = target: T1, 5-hydroxytryptamine receptor 1A (Homo sapiens, UniProt P08908); experiment: Binding affinity to 5-hydroxytryptamine 1A receptor was determined
T1 sequence (P08908 whole entry): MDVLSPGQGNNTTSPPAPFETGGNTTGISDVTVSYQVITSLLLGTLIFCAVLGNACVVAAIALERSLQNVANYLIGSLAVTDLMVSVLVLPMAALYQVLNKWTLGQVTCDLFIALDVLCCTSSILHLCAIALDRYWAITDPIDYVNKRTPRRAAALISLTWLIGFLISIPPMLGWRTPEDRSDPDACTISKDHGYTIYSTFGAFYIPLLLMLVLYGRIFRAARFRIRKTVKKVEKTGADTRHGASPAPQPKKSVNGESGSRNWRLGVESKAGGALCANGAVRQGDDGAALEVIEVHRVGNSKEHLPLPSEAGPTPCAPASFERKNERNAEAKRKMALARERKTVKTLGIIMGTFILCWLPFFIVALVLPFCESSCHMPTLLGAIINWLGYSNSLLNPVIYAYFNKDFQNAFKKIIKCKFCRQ

[2] = target: T2, D(4) dopamine receptor (Homo sapiens, UniProt P21917); experiment: Binding affinity to Dopamine receptor D4 was determined
T2 sequence (P21917 whole entry): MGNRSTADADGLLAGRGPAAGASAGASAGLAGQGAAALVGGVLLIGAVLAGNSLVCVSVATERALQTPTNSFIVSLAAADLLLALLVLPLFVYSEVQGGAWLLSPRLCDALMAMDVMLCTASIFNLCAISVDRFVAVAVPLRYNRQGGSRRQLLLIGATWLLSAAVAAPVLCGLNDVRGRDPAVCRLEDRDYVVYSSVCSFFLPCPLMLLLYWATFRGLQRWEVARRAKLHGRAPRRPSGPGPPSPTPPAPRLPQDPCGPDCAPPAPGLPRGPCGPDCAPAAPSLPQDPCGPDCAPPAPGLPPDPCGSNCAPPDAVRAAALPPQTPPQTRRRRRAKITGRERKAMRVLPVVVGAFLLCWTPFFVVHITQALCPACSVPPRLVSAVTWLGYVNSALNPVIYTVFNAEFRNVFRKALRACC

[3] = target: D(2) dopamine receptor (Homo sapiens, UniProt P14416); experiment: Binding affinity to Dopamine receptor D2 was determined
Sequence of D(2) dopamine receptor (P14416 whole entry): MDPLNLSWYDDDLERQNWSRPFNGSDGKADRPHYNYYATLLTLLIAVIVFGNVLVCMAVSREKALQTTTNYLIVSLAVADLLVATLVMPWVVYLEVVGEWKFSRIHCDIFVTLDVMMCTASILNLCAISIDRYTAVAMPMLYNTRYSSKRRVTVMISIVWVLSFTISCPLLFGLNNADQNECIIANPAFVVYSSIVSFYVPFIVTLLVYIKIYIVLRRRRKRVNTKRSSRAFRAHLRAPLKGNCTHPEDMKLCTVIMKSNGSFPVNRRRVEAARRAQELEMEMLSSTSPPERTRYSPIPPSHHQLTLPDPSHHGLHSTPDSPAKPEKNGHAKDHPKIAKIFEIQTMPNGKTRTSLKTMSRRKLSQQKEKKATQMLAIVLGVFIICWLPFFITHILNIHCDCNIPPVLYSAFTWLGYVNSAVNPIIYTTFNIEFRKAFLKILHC

Ki [1] [nM]	Ki [2] [nM]	Ki [3] [nM]	Compound
32	7.2	460	O=C1[C@@H]2[C@H]3CC[C@H](C3)[C@@H]2C(=O)N1CCCCN1CCN(c2ncccn2)CC1 [TANDOSPIRONE]
1500	260	62	Cc1nc(Cl)c(Sc2ccc(Cl)cc2)c(N2CCN(C)CC2)n1
460	250	188	CNc1nc(Cl)c(Sc2ccccc2)c(N2CCN(C)CC2)n1
160	2.3	62	Cc1nc(Cl)c(Sc2ccc(Cl)cc2)c(NC2CCN(Cc3ccccc3)CC2)n1
2000	92	31	CN1CCN(c2nc3ccccc3c(Cl)c2Sc2ccccc2)CC1

Compound	Ki [1] [nM]	Ki [2] [nM]	Ki [3] [nM]
CNc1nc(Cl)c(SC)c(N2CCN(C)CC2)n1 [MEZILAMINE]	430	> 10000	5.4
